# Source: US11912693B2, “Compounds for modulating S1P1 activity and methods of using the same” (TREVENA, INC., priority 2017, dated 2024)
# Legend:
# [1] = molecular target: T1, human sphingosine-1-phosphate receptor 1 (S1P1) (Homo sapiens (Human), UniProt P21453); experiment: Inhibition of cAMP production (HTRF cAMP HiRange), S1P1 CHO-K1 cells; type: cell-based; conditions: for Emax: CHO-K1, efficacy (SPAN) normalized to fingolimod, read-out: hS1P1 cAMP SPAN
# Summary of the method: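 CHO-K1 cells stably co-expressing human S1P1 (C-terminal Prolink tag) and EA-β-arrestin2 were grown in AssayComplete Media 6 at 37° C. and 5% CO2, plated, and incubated overnight. Agonist-driven inhibition of intracellular cAMP was read by TR-FRET with the HTRF cAMP HiRange kit on a PheraStar reader. Potency is pEC50, and efficacy (SPAN) is normalized to fingolimod.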
# Target sequence in this assay (P21453 whole entry, looked up): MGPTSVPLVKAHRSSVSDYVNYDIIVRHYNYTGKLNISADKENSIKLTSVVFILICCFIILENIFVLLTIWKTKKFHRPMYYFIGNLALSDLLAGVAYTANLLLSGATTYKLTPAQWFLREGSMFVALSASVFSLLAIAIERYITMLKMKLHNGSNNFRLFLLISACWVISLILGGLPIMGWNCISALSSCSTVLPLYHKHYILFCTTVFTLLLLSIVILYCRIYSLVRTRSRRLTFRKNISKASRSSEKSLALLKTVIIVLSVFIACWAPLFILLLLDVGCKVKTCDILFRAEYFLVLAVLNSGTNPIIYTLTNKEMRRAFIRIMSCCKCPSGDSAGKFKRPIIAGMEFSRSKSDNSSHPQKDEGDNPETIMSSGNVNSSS
# [2] = molecular target: T1, human sphingosine-1-phosphate receptor 1 (S1P1); experiment: β-Arrestin2 recruitment assay (PathHunter), S1P1 CHO-K1 cells; type: cell-based; conditions: for Emax: CHO-K1, efficacy (SPAN) normalized to fingolimod, read-out: hS1P1 B-arrestin2 SPAN
# Summary of the method: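 Enzyme-fragment complementation read-out: agonist-driven β-arrestin2 binding to ProLink-tagged human S1P1 in stable CHO-K1 cells restores β-galactosidase, measured 1 h at room temperature after a 60 min 37° C. compound incubation. Potency as pEC50, efficacy relative to fingolimod (SPAN).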
# Target sequence in this assay (P21453 whole entry, looked up): as above
# Target sequence in this assay (P32121 whole entry partner, looked up): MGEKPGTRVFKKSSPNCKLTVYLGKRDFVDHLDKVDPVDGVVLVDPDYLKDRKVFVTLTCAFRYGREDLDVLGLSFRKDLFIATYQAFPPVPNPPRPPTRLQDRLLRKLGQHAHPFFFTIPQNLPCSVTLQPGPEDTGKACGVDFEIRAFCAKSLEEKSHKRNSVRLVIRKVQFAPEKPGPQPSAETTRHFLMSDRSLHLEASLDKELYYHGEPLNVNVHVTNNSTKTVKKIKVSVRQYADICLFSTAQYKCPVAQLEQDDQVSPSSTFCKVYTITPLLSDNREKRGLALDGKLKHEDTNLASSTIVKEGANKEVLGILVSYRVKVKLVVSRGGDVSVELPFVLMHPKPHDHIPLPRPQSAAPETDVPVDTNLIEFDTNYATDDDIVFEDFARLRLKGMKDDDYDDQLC
# [3] = inhibition of cAMP production, S1P1 CHO-K1 cells
# [4] = β-arrestin2 recruitment, S1P1 CHO-K1 cells
structure (smiles),measurement,setting,value
"COC(=O)CCn1nnc2cc(-c3noc(-c4ccccc4Br)n3)ccc21 [Compound 161, methyl 3-(5-(5-(2-bromophenyl)-1,2,4-oxadiazol-3-yl)-1H-benzo[d][1,2,3]triazol-1-yl)propanoate]",hS1P1 cAMP pEC50,[1]; [3],<6.5
same,hS1P1 B-arrestin2 pEC50,[2]; [4],<5
"C=CCNc1ccc(-c2nc(-c3ccc4c(c3)nnn4C(C)C)no2)cc1C#N [Compound 150, 2-(allylamino)-5-(3-(1-isopropyl-1H-benzo[d][1,2,3]triazol-5-yl)-1,2,4-oxadiazol-5-yl)benzonitrile]",Emax,[1],> 75%
same,hS1P1 cAMP pEC50,[1]; [3],>6.5
same,Emax,[2],> 75%
same,hS1P1 B-arrestin2 pEC50,[2]; [4],>5
"Brc1ccccc1-c1noc(-c2ccc3c(c2)nnn3C2CC2)n1 [Compound 83, 5-[3-(2-bromophenyl)-1,2,4-oxadiazol-5-yl]-1-cyclopropyl-1H-1,2,3-benzotriazole]",Emax,[1],> 75%
same,hS1P1 cAMP pEC50,[1]; [3],>6.5
same,Emax,[2],> 75%
same,hS1P1 B-arrestin2 pEC50,[2]; [4],>5
"c1cc(-c2noc(-c3ccc4c(c3)nnn4C3CC3)n2)ccn1 [Compound 295, 1-cyclopropyl-5-[3-(pyridin-4-yl)-1,2,4-oxadiazol-5-yl]-1H-1,2,3-benzotriazole]",Emax,[1],> 75%
same,hS1P1 cAMP pEC50,[1]; [3],<6.5
same,Emax,[2],< 75%
same,hS1P1 B-arrestin2 pEC50,[2]; [4],<5
"CCC1(CC)C/C(=N/O)c2cc(-c3nc(-c4cccnc4)no3)ccc2O1 [Compound 430, N-[(4Z)-2,2-diethyl-6-[3-(pyridin-3-yl)-1,2,4-oxadiazol-5-yl]-3,4-dihydro-2H-1-benzopyran-4-ylidene]hydroxylamine]",hS1P1 cAMP pEC50,[1]; [3],<6.5
same,hS1P1 B-arrestin2 pEC50,[2]; [4],<5
"Cc1ccccc1-c1noc(-c2ccc3c(c2)CCC(=O)N3)n1 [Compound 365, 6-[3-(2-methylphenyl)-1,2,4-oxadiazol-5-yl]-1,2,3,4-tetrahydroquinolin-2-one]",hS1P1 cAMP pEC50,[1]; [3],<6.5
same,hS1P1 B-arrestin2 pEC50,[2]; [4],>5
"CC(C)n1nnc2cc(-c3nc(Cc4ccccc4)no3)ccc21 [Compound 88, 5-(3-benzyl-1,2,4-oxadiazol-5-yl)-1-(propan-2-yl)-1H-1,2,3-benzotriazole]",Emax,[1],< 75%
same,hS1P1 cAMP pEC50,[1]; [3],<6.5
same,Emax,[2],< 75%
same,hS1P1 B-arrestin2 pEC50,[2]; [4],<5
"CCC1(CC)CC(=O)c2cc(-c3nc(-c4ccncc4O)no3)ccc2O1 [Compound 312, 2,2-diethyl-6-(3-(3-hydroxypyridin-4-yl)-1,2,4-oxadiazol-5-yl)chroman-4-one]",Emax,[1],> 75%
same,hS1P1 cAMP pEC50,[1]; [3],<6.5
same,Emax,[2],> 75%
same,hS1P1 B-arrestin2 pEC50,[2]; [4],<5
"COc1cccc2nc(-c3ccc4c(c3)nnn4C(C)C)oc12 [Compound 515, 2-(1-isopropyl-1H-benzo[d][1,2,3]triazol-5-yl)-7-methoxybenzo[d]oxazole]",Emax,[1],> 75%
same,hS1P1 cAMP pEC50,[1]; [3],>6.5
same,Emax,[2],> 75%
same,hS1P1 B-arrestin2 pEC50,[2]; [4],>5
"CC(C)Cn1nnc2cc(-c3nc(-c4ccccc4Cl)no3)ccc21 [Compound 289, 5-[3-(2-chlorophenyl)-1,2,4-oxadiazol-5-yl]-1-(2-methylpropyl)-1H-1,2,3-benzotriazole]",hS1P1 cAMP pEC50,[1]; [3],<6.5
same,hS1P1 B-arrestin2 pEC50,[2]; [4],<5
"COc1ccc(-c2noc(-c3ccc4c(c3)nnn4C(C)C)n2)cc1OC [Compound 230, 3-(3,4-dimethoxyphenyl)-5-(1-isopropyl-1H-benzo[d][1,2,3]triazol-5-yl)-1,2,4-oxadiazole]",Emax,[1],< 75%
same,hS1P1 cAMP pEC50,[1]; [3],<6.5
same,Emax,[2],< 75%
same,hS1P1 B-arrestin2 pEC50,[2]; [4],<5
"CC(C)n1ccc2cc(-c3nc(-c4ccccc4Cl)no3)ccc21 [Compound 320, 3-(2-chlorophenyl)-5-(1-isopropyl-1H-indol-5-yl)-1,2,4-oxadiazole]",Emax,[1],> 75%
same,hS1P1 cAMP pEC50,[1]; [3],>6.5
same,Emax,[2],> 75%
same,hS1P1 B-arrestin2 pEC50,[2]; [4],>5
"COc1cccc(-c2noc(-c3ccc4c(c3)nnn4C(C)C)n2)c1 [Compound 228, 5-(1-isopropyl-1H-benzo[d][1,2,3]triazol-5-yl)-3-(3-methoxyphenyl)-1,2,4-oxadiazole]",hS1P1 cAMP pEC50,[1]; [3],<6.5
same,hS1P1 B-arrestin2 pEC50,[2]; [4],<5
"CSc1cccc(-c2nc(-c3ccc4c(c3)nnn4C3CCCC3)no2)c1 [Compound 47, 3-(1-cyclopentyl-1H-benzo[d][1,2,3]triazol-5-yl)-5-(3-(methylthio)phenyl)-1,2,4-oxadiazole]",hS1P1 cAMP pEC50,[1]; [3],<6.5
same,hS1P1 B-arrestin2 pEC50,[2]; [4],<5
"c1ccc(Cc2noc(-c3ccc4c(c3)nnn4C3CCCC3)n2)cc1 [Compound 92, 5-(3-benzyl-1,2,4-oxadiazol-5-yl)-1-cyclopentyl-1H-1,2,3-benzotriazole]",Emax,[1],< 75%
same,EC50,"[1]; inhibition of cAMP production, S1P1 CHO-K1 cells, read-out: hS1P1 cAMP pEC50 (converted)",> 0.316 µM
same,Emax,[2],< 75%
same,EC50,"[2]; β-arrestin2 recruitment, S1P1 CHO-K1 cells, read-out: hS1P1 B-arrestin2 pEC50 (converted)",> 10 µM
"CCC1(CC)CC(=O)c2cc(-c3nc(-c4ccco4)no3)ccc2O1 [Compound 465, 2,2-diethyl-6-(3-(furan-2-yl)-1,2,4-oxadiazol-5-yl)chroman-4-one]",hS1P1 cAMP pEC50,[1]; [3],>6.5
same,hS1P1 B-arrestin2 pEC50,[2]; [4],>5
"CCC1(CC)CC(=O)c2cc(-c3nnc(-c4cccnc4)o3)ccc2O1 [Compound 28, 2,2-diethyl-6-(5-(pyridin-3-yl)-1,3,4-oxadiazol-2-yl)chroman-4-one]",Emax,[1],> 75%
same,hS1P1 cAMP pEC50,[1]; [3],<6.5
same,Emax,[2],> 75%
same,hS1P1 B-arrestin2 pEC50,[2]; [4],<5
"Cc1ccccc1-c1cc(-c2ccc3c(c2)nnn3C(C)C)c[nH]1 [Compound 601, 5-[5-(2-methylphenyl)-1H-pyrrol-3-yl]-1-(propan-2-yl)-1H-1,2,3-benzotriazole]",hS1P1 cAMP pEC50,[1]; [3],<6.5
same,hS1P1 B-arrestin2 pEC50,[2]; [4],>5
"COc1ccc(-c2nc(-c3ccc4c(c3)nnn4C(C)(C)CO)no2)c(C)c1 [Compound 610, 2-(5-(5-(4-methoxy-2-methylphenyl)-1,2,4-oxadiazol-3-yl)-1H-benzo[d][1,2,3]triazol-1-yl)-2-methylpropan-1-ol]",hS1P1 cAMP pEC50,[1]; [3],<6.5
same,hS1P1 B-arrestin2 pEC50,[2]; [4],<5
"COc1ccccc1-c1nc(-c2ccc3c(c2)nnn3C(C)C)co1 [Compound 575, 5-[2-(2-methoxyphenyl)-1,3-oxazol-4-yl]-1-(propan-2-yl)-1H-1,2,3-benzotriazole]",Emax,[1],> 75%
same,hS1P1 cAMP pEC50,[1]; [3],>6.5
same,Emax,[2],> 75%
same,hS1P1 B-arrestin2 pEC50,[2]; [4],>5
"CC(=O)Nc1ccc(-c2noc(-c3ccc(NC(C)C)c(C#N)c3)n2)cc1 [Compound 316, N-(4-(5-(3-cyano-4-(isopropylamino)phenyl)-1,2,4-oxadiazol-3-yl)phenyl)acetamide]",Emax,[1],> 75%
same,hS1P1 cAMP pEC50,[1]; [3],>6.5
same,Emax,[2],< 75%
same,hS1P1 B-arrestin2 pEC50,[2]; [4],<5
"CCC1(CC)CC(=O)c2cc(-c3nsc(-c4ccccc4OC)n3)ccc2O1 [Compound 222, 2,2-diethyl-6-(5-(2-methoxyphenyl)-1,2,4-thiadiazol-3-yl)chroman-4-one]",hS1P1 cAMP pEC50,[1]; [3],<6.5
same,hS1P1 B-arrestin2 pEC50,[2]; [4],>5
"CC(C)Oc1ccccc1-c1noc(-c2ccc3c(ccn3C(C)C)c2)n1 [Compound 324, 3-(2-isopropoxyphenyl)-5-(1-isopropyl-1H-indol-5-yl)-1,2,4-oxadiazole]",Emax,[1],< 75%
same,hS1P1 cAMP pEC50,[1]; [3],<6.5
same,Emax,[2],< 75%
same,hS1P1 B-arrestin2 pEC50,[2]; [4],<5
"CC(C)Nc1ccc(-c2ncc(-c3ccc4[nH]c(=O)[nH]c4c3)cn2)cc1C#N [Compound 628, 2-(isopropylamino)-5-(5-(2-oxo-2,3-dihydro-1H-benzo[d]imidazol-5-yl)pyrimidin-2-yl)benzonitrile]",hS1P1 cAMP pEC50,[1]; [3],>6.5
same,hS1P1 B-arrestin2 pEC50,[2]; [4],>5
"CCC1(CC)CC(=O)c2cc(-c3nc(-c4ccn[nH]4)no3)ccc2O1 [Compound 470, 6-(3-(1H-pyrazol-5-yl)-1,2,4-oxadiazol-5-yl)-2,2-diethylchroman-4-one]",hS1P1 cAMP pEC50,[1]; [3],<6.5
same,hS1P1 B-arrestin2 pEC50,[2]; [4],<5
"CC(C)n1nnc2cc(-c3noc(-c4ccccc4OC(F)(F)F)n3)ccc21 [Compound 240, 3-(1-isopropyl-1H-benzo[d][1,2,3]triazol-5-yl)-5-(2-(trifluoromethoxy)phenyl)-1,2,4-oxadiazole]",Emax,[1],> 75%
same,hS1P1 cAMP pEC50,[1]; [3],<6.5
same,Emax,[2],> 75%
same,hS1P1 B-arrestin2 pEC50,[2]; [4],<5
